According to patent publication US20230174472A1, “THERAPEUTIC USE OF PLEUROMUTILINS” (priority 2020, published 2023):

How the values were obtained:
[1] = system: mice challenged with lipopolysaccharide (LPS); assay: LPS induced lung neutrophilia model, BALF cell counts (Example 2); settings: 10, 30 and 100 mg/kg SC; 4 h post LPS
[2] = system: influenza A virus, porcine reproductive and respiratory syndrome virus (PRRSV) type 1 and 2; settings: WO 2009/106839; compared to Tiamulin 0.1-10 μg/mL; cited from earlier work
[3] = system: lipopolysaccharide (LPS)-induced ALI; settings: cited from earlier work
[4] = system: TNF-α, IL-6, IL-1β, GM-CSF, CXCL1, CXCL2, CCL2, MMP9 in lung homogenate; assay: LPS induced lung neutrophilia model, marker concentrations in lung homogenate (Example 2)
[5] = lower doses of 10 and 30 mg/kg SC
[6] = same doses (10, 30, 100 mg/kg SC)

C=C[C@]1(C)C[C@@H](OC(=O)CSC(C)(C)CNC(=O)[C@H](N)C(C)C)[C@]2(C)[C@H](C)CC[C@]3(CCC(=O)[C@H]32)[C@@H](C)[C@@H]1O [Valnemulin, reference compound]
lymphocyte cell counts in BALF [1]: not significantly affected | macrophage cell counts in BALF [1]: not significantly affected | antiviral activity [2]: did not exhibit antiviral activity | concentration of pro-inflammatory cytokines TNF-α, IL-6 and IL-1ß in bronchoalveolar lavage fluid ([3]; in vivo): attenuate | pulmonary wet-to-dry (W/D) ratio in the lung ([3]; pre-administration): significantly reduced | reduction of MMP9 levels in lung homogenate ([4]; 100 mg/kg SC): 50% | GM-CSF in lung homogenate ([4]; all doses tested (10, 30, 100 mg/kg SC)): showed a reduction of GM-CSF levels, but was less active than Lefamulin | LPS-induced CCL2 increase in the lung homogenate ([4]; all investigated doses (10, 30, 100 mg/kg SC), Valnemulin particularly at 10 and 30 mg/kg): less active | effect on CXCL1 compared to Lefamulin [4, 5]: less effect | effect on CXCL2 compared to Lefamulin [4, 5]: less effect | IL-6 level in lung homogenate, compared with Lefamulin [4, 6]: less active | TNF-α level in lung homogenate, compared with Lefamulin [4, 6]: less active
